# Values quoted from earlier work in patent US20100063116A1 (priority 2006, published 2010).
# Where two headings read alike, the source gives them in different places.
# Tests used:
# [1] = system: patients with early Parkinson's disease
# [2] = system: patients with early Parkinson's disease; remark: listed apart in the source
# [3] = system: D2 subfamily of dopamine receptors; details: in vitro
# [4] = system: dopamine receptors in the striatum and the substantia nigra; details: electrophysiologic studies in animals
# [5] = end of 6-month maintenance, titrated up to 4.5 mg/day in three divided doses
compound,measurement,setting,value
"CCCN[C@@H]1CCc2nc(N)sc2C1 [Pramipexole, pramipexole]",dose-response relationship,"[1]; 1.5 mg, 3.0 mg, 4.5 mg, or 6.0 mg per day",No dose-response relationship was demonstrated
same,mean improvement from baseline on the UPDRS part III total score,"[1]; end of 4-week maintenance, fixed doses 1.5-6.0 mg per day",4.2
same,mean improvement from baseline on the UPDRS part II total score,"[1]; end of 4-week maintenance, fixed doses 1.5-6.0 mg per day, regardless of dose group",1.8
same,"benefit of 3 mg, 4.5 mg and 6 mg per day beyond 1.5 mg/day",[1]; fixed-dose study in early Parkinson's disease patients,not shown to provide any significant benefit
same,mean improvement from baseline on the UPDRS part II (ADL) total score,[2]; [5],1.9
same,mean improvement from baseline on the UPDRS part III total score,[2]; [5],5.0
same,"beginning of statistically significant difference versus placebo, UPDRS part II",[2]; maximum dose 0.75 mg/day,2 week
same,"beginning of statistically significant difference versus placebo, UPDRS part III",[2]; maximum dose 1.5 mg/day,3 week
same,intrinsic activity at the D2 subfamily of dopamine receptors,[3],full intrinsic activity
same,effect on striatal neuronal firing rates,[4],influences striatal neuronal firing rates
same,bound to plasma proteins,plasma proteins,about 15%
same,volume of distribution,CV=20%,about 500 L
same,renal clearance,CV=25%,approximately 400 mL/min
same,dose recovered in urine,almost all as unchanged drug,90%
same,clearance in dialysis patients,dialysis patients,extremely low
same,terminal half-life,elderly volunteers,about 12 hours
same,metabolites in plasma or urine,"human, in vivo",no metabolites have been identified
same,pharmacokinetics in early versus advanced Parkinson's disease patients,"human, in vivo",comparable
same,decrease of clearance compared with healthy volunteers,moderate renal impairment (creatinine clearance approximately 40 mL/min),about 60%
same,time to steady-state concentrations,of dosing,≤ 2 days
same,absolute bioavailability,oral,greater than 90%
same,linearity of pharmacokinetics,over the clinical dosage range,linear pharmacokinetics
same,decrease of clearance compared with healthy volunteers,severe renal impairment (creatinine clearance approximately 20 mL/min),about 75%
same,effect of food on the extent of absorption,taken with food,does not affect
same,terminal half-life,young healthy volunteers,about 8 hours
